This note sets out measurements from US10028956B2, “Methods of treating various cancers using an AXL/cMET inhibitor in combination with other agents” (Ignyta, Inc., priority 2013, dated 2018).

A short description of data set [1]: PK in dog. The note with it: in vivo.
A short description of data set [2]: PK in monkey. The note with it: in vivo.
In data set [3] the target is T1, AXL (Homo sapiens, UniProt P30530).
T1 sequence (P30530 26-894): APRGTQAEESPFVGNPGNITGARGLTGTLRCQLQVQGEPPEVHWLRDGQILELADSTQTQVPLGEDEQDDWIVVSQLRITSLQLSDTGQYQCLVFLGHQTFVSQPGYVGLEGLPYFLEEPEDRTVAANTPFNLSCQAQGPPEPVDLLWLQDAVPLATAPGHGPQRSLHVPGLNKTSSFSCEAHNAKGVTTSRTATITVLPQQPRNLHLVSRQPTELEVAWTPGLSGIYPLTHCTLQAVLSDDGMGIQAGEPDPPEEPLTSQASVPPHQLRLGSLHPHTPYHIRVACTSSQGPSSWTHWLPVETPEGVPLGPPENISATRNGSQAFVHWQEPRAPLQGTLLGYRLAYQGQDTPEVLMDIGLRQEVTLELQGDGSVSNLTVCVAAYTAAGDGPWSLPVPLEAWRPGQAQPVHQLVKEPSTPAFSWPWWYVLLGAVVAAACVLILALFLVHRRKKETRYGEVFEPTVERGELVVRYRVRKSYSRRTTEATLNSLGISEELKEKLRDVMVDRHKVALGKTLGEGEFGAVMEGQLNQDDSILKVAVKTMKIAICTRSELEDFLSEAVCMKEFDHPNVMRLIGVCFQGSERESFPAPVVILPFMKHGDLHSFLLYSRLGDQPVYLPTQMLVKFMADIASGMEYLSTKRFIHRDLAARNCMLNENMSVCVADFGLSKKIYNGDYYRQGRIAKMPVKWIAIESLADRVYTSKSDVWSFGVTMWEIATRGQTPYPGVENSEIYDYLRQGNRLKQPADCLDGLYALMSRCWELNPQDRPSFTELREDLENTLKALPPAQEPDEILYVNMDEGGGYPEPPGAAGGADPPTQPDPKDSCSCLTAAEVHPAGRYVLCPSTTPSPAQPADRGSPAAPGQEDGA
The data set is described as follows: Dissociation from AXL, LanthaScreen Eu-kinase binding assay. As for the experimental part: (§1) Assay buffer was prepared as for association, and used for all dilutions. A 5-μL aliquot of 80 nM LanthaScreen Eu-anti-GST antibody:20 nM GST-tagged enzyme mix was added to the Greiner low volume white 384-well plate, with antibody only added to control wells. Compound (100 nL) in DMSO was added by pintool at 2000-fold over the final assay concentration. DMSO was added to no inhibitor control wells. After a one-hour incubation at ambient temperature to allow formation of the enzyme-inhibitor complex, 2 μL of the reaction mix was transferred to a 384 Optiplate (PerkinElmer) and 78 μL of kinase tracer 236 was added. The final tracer concentration was 100 nM for AXL and 200 nM for c-Met. Readings were immediately initiated and total of 60 time points were taken at 2-min intervals, at 25° C. or 37° C. The background subtracted ratio was normalized to the no inhibitor control to calculate the % tracer bound, which was plotted with respect to time. The data was fitted to the one phase association model in GraphPad Prism (La Jolla Calif.).
In general terms: In TR-FRET formats the signal depends on donor and acceptor labels being close together.

Data set [4] addresses c-Met (Homo sapiens, UniProt P08581). The experiment in a line: Dissociation from c-Met, LanthaScreen Eu-kinase binding assay. The procedure:
as §1

Data set [5] concerns GTL-16 gastric carcinoma xenografts. The data set is described as follows: Anti-tumor efficacy in GTL-16 gastric carcinoma xenografts. It is filed as in vivo, mice. To be noted: 10 and 30 mg/kg oral qd. The text has this:
The human gastric cancer cell line, GTL-16 was purchased from ATCC (American Tissue Culture Collection, Manassas, Va.) and cultured in DMEM medium with 10% fetal bovine serum (FBS, Cat# SH3007003, Hyclone Laboratory Inc, Logan, Utah). Female Nu/Nu mice (6-8 weeks, Charles River Laboratory, Wilmington, Mass.) were maintained 5/cage in microisolator units on a standard laboratory diet (Teklad Labchow, Harlan Teklad, Madison, Wis.). Animals were housed under humidity- and temperature-controlled conditions and the light/dark cycle was set at 12-hour intervals. Mice were quarantined at least 1 week prior to experimental manipulation. […] The mice were then monitored daily. […] The length (L) and width (W) of each tumor was measured with a vernier caliper and the mouse body weight was determined every 2-3 days. The tumor volumes were then calculated with the formula of 0.5236*L*W*(L+W)/2. […] Plasma and tumor samples were obtained at 2 hours post final dose at each dose level, and the compound levels in plasma and tumor lysates were measured by LC-MS/MS. The TGI values were calculated at the end of study by comparing the tumor volumes (TV) of each CEP-40783-treatment group with those of vehicle-treated group with the following formula: 1-(the last day TV of compound-treated group/the last day TV of vehicle-treated group).

The target in data set [6] is T1, AXL. The data set is described as follows: Cellular potency in NCI-H1299 human NSCL cells. Type of data set: cell-based. On the set-up: endogenous in cells; host or cells: NCI-H1299 human NSCLC cells (culture; subcutaneous xenograft in mice).
Where [7] appears, read: intravenous, 0.5 mg/kg i.v. and p.o.
Where [8] appears, read: iv, 0.5 mg/kg i.v., read-out: t1/2 i.v. (converted).

What is called Cmax is the peak of the concentration-time curve. The term bioavailability denotes dose-corrected exposure relative to a reference, in per cent. In general, AUC(0-t) refers to exposure summed from dosing to a finite time, without extrapolation to infinity. What is called IC50 is the midpoint of a concentration-inhibition curve.

Sequence of c-Met (P08581 25-1390): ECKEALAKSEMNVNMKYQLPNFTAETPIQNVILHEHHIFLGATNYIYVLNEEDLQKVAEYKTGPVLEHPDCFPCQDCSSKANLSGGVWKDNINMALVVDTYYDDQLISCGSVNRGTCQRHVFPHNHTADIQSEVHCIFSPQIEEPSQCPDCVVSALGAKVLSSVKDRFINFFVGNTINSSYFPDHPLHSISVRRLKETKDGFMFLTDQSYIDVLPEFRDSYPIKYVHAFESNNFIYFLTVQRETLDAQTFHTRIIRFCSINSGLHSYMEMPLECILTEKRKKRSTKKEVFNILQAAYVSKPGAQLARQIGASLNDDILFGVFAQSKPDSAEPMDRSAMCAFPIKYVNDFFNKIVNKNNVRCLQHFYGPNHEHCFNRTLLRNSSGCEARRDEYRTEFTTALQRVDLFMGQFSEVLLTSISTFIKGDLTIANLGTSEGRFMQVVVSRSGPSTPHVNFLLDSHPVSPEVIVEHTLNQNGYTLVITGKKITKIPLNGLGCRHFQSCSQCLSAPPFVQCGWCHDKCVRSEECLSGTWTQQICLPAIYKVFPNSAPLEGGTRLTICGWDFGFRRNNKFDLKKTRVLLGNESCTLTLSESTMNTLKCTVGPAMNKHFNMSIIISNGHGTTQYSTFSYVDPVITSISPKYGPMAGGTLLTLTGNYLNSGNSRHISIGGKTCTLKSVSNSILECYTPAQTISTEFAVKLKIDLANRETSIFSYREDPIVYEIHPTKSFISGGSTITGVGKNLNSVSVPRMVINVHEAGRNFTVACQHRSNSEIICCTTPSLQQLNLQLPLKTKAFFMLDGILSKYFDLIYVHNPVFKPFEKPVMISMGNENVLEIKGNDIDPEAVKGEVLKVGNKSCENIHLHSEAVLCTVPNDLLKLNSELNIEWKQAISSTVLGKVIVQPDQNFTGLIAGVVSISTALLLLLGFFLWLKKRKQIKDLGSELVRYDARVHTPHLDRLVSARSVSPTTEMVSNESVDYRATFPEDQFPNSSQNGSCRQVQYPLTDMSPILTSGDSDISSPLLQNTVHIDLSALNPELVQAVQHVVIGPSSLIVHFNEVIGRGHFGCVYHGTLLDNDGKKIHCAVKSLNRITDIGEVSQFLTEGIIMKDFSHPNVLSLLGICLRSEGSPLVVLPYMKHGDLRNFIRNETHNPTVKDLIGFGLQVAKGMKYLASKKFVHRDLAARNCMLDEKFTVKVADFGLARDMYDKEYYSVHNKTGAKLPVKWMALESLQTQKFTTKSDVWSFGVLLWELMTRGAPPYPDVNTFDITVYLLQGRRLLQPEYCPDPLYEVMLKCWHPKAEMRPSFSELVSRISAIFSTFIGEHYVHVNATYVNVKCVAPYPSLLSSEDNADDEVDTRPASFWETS

With `COc1cc2nccc(Oc3ccc(NC(=O)c4cn(C(C)C)c(=O)n(-c5ccc(F)cc5)c4=O)cc3F)c2cc1OC` [CEP-40783, 3-(4-Fluorophenyl)-1-isopropyl-2,4-dioxo-1,2,3,4-tetrahydropyrimidine-5-carboxylic acid [4-(6,7-dimethoxyquinolin-4-yloxy)-3-fluorophenyl]-amide], the Cmax in data set [1] (0.5 mg/kg i.v. and p.o.) amounted to 1170 ng/mL; in data set [2] (0.5 mg/kg i.v. and p.o.) it was 260 ng/mL. Moreover, the Vd in data set [1] (setting [7]) came out at 1.3 L/kg; in data set [2] (setting [7]), 1.2 L/kg. The clearance was found to be 0.5 mL/min/kg in data set [1] (setting [7]) and 2.2 mL/min/kg in data set [2] (setting [7]). In addition, the half-life is 1660 min in data set [1] (setting [8]) and 870 min in data set [2] (setting [8]). In addition, the bioavailability in data set [1] (oral, 0.5 mg/kg i.v. and p.o.) stood at 100%; in data set [2] (oral, 0.5 mg/kg i.v. and p.o.), 77%. The AUC(0-t) in data set [1] (po, 0.5 mg/kg p.o.) is 14400 ng·h/mL; in data set [2] (po, 0.5 mg/kg p.o.) it was 3030 ng·h/mL. Also, in data set [3] (25° C.), the “off-rate from AXL” value is reported as “very slow”. Besides, the “dissociation rate from AXL at higher temperature” value in data set [3] (37° C. versus 25° C.) is recorded as “slightly enhanced”. The “off-rate from c-Met” value in data set [4] (25° C.) is “very slow”. For the same molecule, the “dissociation rate from c-Met at higher temperature” value in data set [4] (37° C. versus 25° C.) is “slightly enhanced”. Also, the “anti-tumor efficacy (tumor volume)” value in data set [5] is “tumor stasis and regressions”. The molecule also returned a half-maximal inhibitory concentration (IC50) in data set [6] of 0.1 nM.
